One block for each compound: values may come before it.
Assays:
NBD1 = target: T1, NBD1 (Homo sapiens, UniProt P13569); assay: Aggregation analysis using differential static light scattering (DSLS), thermal stability of NBD1 (ΔTagg); format: binding; details: ΔTagg versus DMSO control, NBD1 0.2 mg/ml
T1 construct: Purified recombinant NBD1 was produced using previously described methods; made in house
Procedure, shortened: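 Purified recombinant NBD1 at 0.2 mg/ml in 50 mM Tris-HCl, 150 mM NaCl, 5 mM MgCl2, 2 mM ATP, 2 mM DTT, pH 7.6, 1% glycerol, with compound, heated 1° C./min to 70° C. under light-scattering monitoring. Tagg taken at curve inflection; ΔTagg is compound Tagg minus mean DMSO-control Tagg, binned A (≤5° C.), B (>5-≤10° C.), C (>10-≤25° C.).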

CFTR = target: T2, CFTR (Homo sapiens, UniProt P13569, DEL508-508); assay: TECC24 AUC fold over DMSO @10 μM, CFTR-mediated transepithelial chloride transport in CF-HBE cells; format: cell-based; details: test agent AUC divided by DMSO vehicle AUC, primary CF-HBE cells, ΔF508 homozygous donor, 48 hours incubation
T2 construct: Primary human bronchial epithelial cells from a ΔF508 homozygous CF donor; host or cells: primary human bronchial epithelial cells (CF-HBE), ΔF508 homozygous donor
T2 sequence (P13569 with tags, fused parts or gaps DEL508-508): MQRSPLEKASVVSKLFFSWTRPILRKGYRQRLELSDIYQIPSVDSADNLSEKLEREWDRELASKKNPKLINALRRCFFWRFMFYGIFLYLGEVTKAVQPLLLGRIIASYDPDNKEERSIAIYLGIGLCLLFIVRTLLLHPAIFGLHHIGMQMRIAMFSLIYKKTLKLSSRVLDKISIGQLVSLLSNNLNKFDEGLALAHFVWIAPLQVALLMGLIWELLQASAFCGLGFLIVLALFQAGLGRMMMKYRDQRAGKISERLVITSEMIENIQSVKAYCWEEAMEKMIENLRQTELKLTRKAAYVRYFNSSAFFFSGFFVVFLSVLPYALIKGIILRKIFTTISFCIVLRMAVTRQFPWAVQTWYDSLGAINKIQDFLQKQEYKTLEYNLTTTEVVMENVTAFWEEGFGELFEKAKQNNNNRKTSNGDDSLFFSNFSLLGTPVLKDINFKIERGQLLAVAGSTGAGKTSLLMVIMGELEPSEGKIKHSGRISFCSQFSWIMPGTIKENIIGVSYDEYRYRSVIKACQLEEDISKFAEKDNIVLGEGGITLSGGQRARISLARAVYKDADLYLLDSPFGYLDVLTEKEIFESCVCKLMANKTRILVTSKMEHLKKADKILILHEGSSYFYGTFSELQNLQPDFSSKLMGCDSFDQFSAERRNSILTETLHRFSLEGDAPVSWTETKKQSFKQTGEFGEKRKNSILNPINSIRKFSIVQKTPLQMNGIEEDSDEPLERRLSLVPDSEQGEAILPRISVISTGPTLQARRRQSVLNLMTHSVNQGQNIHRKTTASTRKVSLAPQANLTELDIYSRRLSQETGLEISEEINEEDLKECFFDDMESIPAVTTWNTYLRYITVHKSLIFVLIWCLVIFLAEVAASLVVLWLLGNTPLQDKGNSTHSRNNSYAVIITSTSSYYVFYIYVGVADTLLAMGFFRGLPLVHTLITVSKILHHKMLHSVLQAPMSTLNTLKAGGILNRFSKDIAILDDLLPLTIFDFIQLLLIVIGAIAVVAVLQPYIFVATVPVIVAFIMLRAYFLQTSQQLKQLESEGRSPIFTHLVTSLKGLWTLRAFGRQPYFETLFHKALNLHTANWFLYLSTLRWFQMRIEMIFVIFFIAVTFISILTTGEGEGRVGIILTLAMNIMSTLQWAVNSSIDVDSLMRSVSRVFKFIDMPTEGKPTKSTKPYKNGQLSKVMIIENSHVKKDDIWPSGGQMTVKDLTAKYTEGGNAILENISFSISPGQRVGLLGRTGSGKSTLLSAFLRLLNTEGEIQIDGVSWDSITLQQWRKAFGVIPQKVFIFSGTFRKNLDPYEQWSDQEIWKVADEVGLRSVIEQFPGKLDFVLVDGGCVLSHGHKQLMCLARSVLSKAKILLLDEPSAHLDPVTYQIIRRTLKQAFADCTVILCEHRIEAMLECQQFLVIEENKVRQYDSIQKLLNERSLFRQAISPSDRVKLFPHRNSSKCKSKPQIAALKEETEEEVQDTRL
Procedure, shortened: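 Primary ΔF508-homozygous CF bronchial epithelial cells on inserts were incubated 48 h at 36.5 °C with compound in IL-13-containing medium. VT and TEER were then recorded in current-clamp mode (pH 7.4 HEPES bath) with benzamil 10 μM, forskolin 10 μM, then CFTR inhibitor-172 20 μM. The IEQ AUC between forskolin and inhibitor was divided by vehicle AUC.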

T1 sequence (P13569 423-646 limits assumed): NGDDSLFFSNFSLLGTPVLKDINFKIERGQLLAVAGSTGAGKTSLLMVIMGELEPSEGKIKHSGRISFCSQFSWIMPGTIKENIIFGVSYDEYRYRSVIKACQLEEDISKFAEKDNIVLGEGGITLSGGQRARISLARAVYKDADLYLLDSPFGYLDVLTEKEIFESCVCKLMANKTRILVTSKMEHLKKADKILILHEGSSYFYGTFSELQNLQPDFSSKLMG

TECC (AUC, 10 μM) (CFTR): B (a value between 12-20 is marked “B”)
SMILES: Cn1nc2nc1-c1cc(ccc1F)Oc1c(F)cc3[nH]ccc3c1CCS(=O)(=O)CC(C)(C)CCCC2(C)c1cccc(C(O)C2NC(=O)NC2=O)c1 (stereo not drawn) [Compound 176, 5-[[3-(22,28-Difluoro-3,6,10,10-tetramethyl-12,12-dioxo-24-oxa-12λ6-thia-3,4,19,30-tetrazapentacyclo[23.3.1.12,5.015,23.016,20]triaconta-1(29),2(30),4,15,17,20,22,25,27-nonaen-6-yl)phenyl]-hydroxy-methyl]imidazolidine-2,4-dione]
DSLS 3D (100 μM ΔT) (NBD1): C (a value greater than 10 °C and less than or equal to 25 °C is marked “C”)

TECC (AUC, 10 μM) (CFTR): B (a value between 12-20 is marked “B”)
SMILES: Cn1nc2nc1-c1cc(ccn1)Sc1c(F)cc3[nH]ccc3c1CCS(=O)(=O)CC(C)(C)CCC[C@]2(C)c1cccc(CC(=O)O)c1 [Compound 251, 2-[3-[(6R)-22-Fluoro-3,6,10,10-tetramethyl-12,12-dioxo-12λ6,24-dithia-3,4,19,28,30-pentazapentacyclo[23.3.1.12,5.015,23.016,20]triaconta-1(29),2(30),4,15,17,20,22,25,27-nonaen-6-yl]phenyl]acetic Acid]
DSLS 3D (100 μM ΔT) (NBD1): C (a value greater than 10 °C and less than or equal to 25 °C is marked “C”)

SMILES: C[C@H](Cc1ccc(C2(C)CCCC(C)(C)CS(=O)(=O)CCc3c(c(F)cc4[nH]ccc34)Oc3ccc(F)c(c3)-c3nc2nn3C)s1)C(=O)O (stereo partly drawn) [Compound 198, (2R)-3-[5-(22,28-difluoro-3,6,10,10-tetramethyl-12,12-dioxo-24-oxa-12λ6-thia-3,4,19,30-tetrazapentacyclo[23.3.1.12,5.015,23.016,20]triaconta-1(29),2(30),4,15,17,20,22,25,27-nonaen-6-yl)-2-thienyl]-2-methyl-propanoic Acid]
DSLS 3D (100 μM ΔT) (NBD1): C (a value greater than 10 °C and less than or equal to 25 °C is marked “C”)
TECC (AUC, 10 μM) (CFTR): C (a value between 20 and 80 is marked “C”)

SMILES: CC1(C)CS(=O)(=O)Cc2c(c(F)cc3[nH]ccc23)Oc2ccc(F)c(c2)-c2ncc([nH]2)C(C)(c2cccc(CCC(=O)O)c2)CCCO1 (stereo not drawn) [Compound 48, 3-[3-(22,28-Difluoro-6,11,11-trimethyl-13,13-dioxo-10,24-dioxa-13λ6-thia-3,19,30-triazapentacyclo[23.3.1.12,5.015,23.016,20]triaconta-1(29),2,4,15,17,20,22,25,27-nonaen-6-yl)phenyl]propanoic Acid]
DSLS 3D (100 μM ΔT) (NBD1): C (a value greater than 10 °C and less than or equal to 25 °C is marked “C”)
TECC (AUC, 10 μM) (CFTR): C (a value between 20 and 80 is marked “C”)

SMILES: [2H]C([2H])([2H])C1(c2cccc(CC(C)C(=O)O)c2F)CCCC(C)(C)CS(=O)(=O)CCc2c(c(F)cc3[nH]ccc23)Oc2ccc(F)c(c2)-c2nc1nn2C (single isomer, unassigned) [Compound 18A, 3-[3-[22,28-difluoro-3,10,10-trimethyl-12,12-dioxo-6-(trideuteriomethyl)-24-oxa-12lambda6-thia-3,4,19,30-tetrazapentacyclo[23.3.1.12,5.015,23.016,20]triaconta-1(29),2(30),4,15,17,20,22,25,27-nonaen-6-yl]-2-fluoro-phenyl]-2-methyl-propanoic acid]
DSLS 3D (100 μM ΔT) (NBD1): B (a value above 5 °C and less than or equal to 10 °C is marked “B”)
TECC (AUC, 10 μM) (CFTR): A (a TECC value less than 12 is marked “A”)

TECC (AUC, 10 μM) (CFTR): B (a value between 12-20 is marked “B”)
SMILES: Cn1nc2nc1-c1cc(ccn1)[S+]([O-])c1c(F)cc3[nH]ccc3c1CCS(=O)(=O)CC(C)(C)CCC[C@]2(C)c1cccc(CC(=O)O)c1 (single isomer, unassigned) [Compound 249B]
DSLS 3D (100 μM ΔT) (NBD1): C (a value greater than 10 °C and less than or equal to 25 °C is marked “C”)

SMILES: Cn1nc2nc1-c1cc(ccn1)Oc1c(F)cc3[nH]ccc3c1CCS(=O)(=O)CC(C)(C)CCC[C@]2(C)c1cccc(CC(C)(C)C(=O)O)c1 [Compound 291, 3-[3-[(6R)-22-fluoro-3,6,10,10-tetramethyl-12,12-dioxo-24-oxa-12λ6-thia-3,4,19,28,30-pentazapentacyclo[23.3.1.12,5.015,23.016,20]triaconta-1(29),2(30),4,15,17,20,22,25,27-nonaen-6-yl]phenyl]-2,2-dimethyl-propanoic Acid]
DSLS 3D (100 μM ΔT) (NBD1): C (a value greater than 10 °C and less than or equal to 25 °C is marked “C”)
TECC (AUC, 10 μM) (CFTR): C (a value between 20 and 80 is marked “C”)

SMILES: [2H]C([2H])([2H])C1(c2cccc(CC(C)C(=O)O)c2)CCCC(C([2H])([2H])[2H])(C([2H])([2H])[2H])CS(=O)(=O)CCc2c(c(F)cc3[nH]ccc23)Oc2ccc(F)c(c2)-c2nc1nn2C (single isomer, unassigned) [Compound 9A, 3-[3-[22,28-difluoro-3-methyl-12,12-dioxo-6,10,10-tris(trideuteriomethyl)-24-oxa-12lambda6-thia-3,4,19,30-tetrazapentacyclo[23.3.1.12,5.015,23.016,20]triaconta-1(29),2(30),4,15,17,20,22,25,27-nonaen-6-yl]phenyl]-2-methyl-propanoic Acid]
DSLS 3D (100 μM ΔT) (NBD1): C (a value greater than 10 °C and less than or equal to 25 °C is marked “C”)
TECC (AUC, 10 μM) (CFTR): A (a TECC value less than 12 is marked “A”)

SMILES: COCC(Cc1cccc([C@@]2(C)CCCC(C)(C)CS(=O)(=O)CCc3c(c(F)cc4[nH]ccc34)Oc3ccnc(c3)-c3nc2nn3C)c1)C(=O)O (single isomer, unassigned) [Compound 285]
DSLS 3D (100 μM ΔT) (NBD1): C (a value greater than 10 °C and less than or equal to 25 °C is marked “C”)
TECC (AUC, 10 μM) (CFTR): C (a value between 20 and 80 is marked “C”)

SMILES: Cn1nc2nc1-c1cc(ccc1F)Oc1c(F)cc3[nH]cnc3c1CCS(=O)(=O)CC(C)(C)CCCC2(C)c1cccc(CCC(=O)O)c1 (stereo not drawn) [Compound 116, 3-[3-(22,28-Difluoro-3,6,10,10-tetramethyl-12,12-dioxo-24-oxa-12λ6-thia-3,4,17,19,30-pentazapentacyclo[23.3.1.12,5.015,23.016,20]triaconta-1(29),2(30),4,15,17,20,22,25,27-nonaen-6-yl)phenyl]propanoic Acid]
DSLS 3D (100 μM ΔT) (NBD1): C (a value greater than 10 °C and less than or equal to 25 °C is marked “C”)
TECC (AUC, 10 μM) (CFTR): A (a TECC value less than 12 is marked “A”)

SMILES: Cn1nc2nc1-c1cc(ccn1)[S+]([O-])c1c(F)cc3[nH]ccc3c1CCS(=O)(=O)CC(C)(C)CCC[C@]2(C)c1cccc(CCC(=O)O)c1 (single isomer, unassigned) [Compound 224]
DSLS 3D (100 μM ΔT) (NBD1): C (a value greater than 10 °C and less than or equal to 25 °C is marked “C”)
TECC (AUC, 10 μM) (CFTR): C (a value between 20 and 80 is marked “C”)

TECC (AUC, 10 μM) (CFTR): B (a value between 12-20 is marked “B”)
SMILES: C[C@@H](Cc1cccc([C@@]2(C)CCCC(C)(C)CS(=O)(=O)CCc3c(c(F)c(F)c4[nH]ccc34)Sc3ccnc(c3)-c3nc2nn3C)c1)C(=O)O [Compound 268, (2S)-3-[3-[(6R)-21,22-Difluoro-3,6,10,10-tetramethyl-12,12-dioxo-12λ6,24-dithia-3,4,19,28,30-pentazapentacyclo[23.3.1.12,5.015,23.016,20]triaconta-1(29),2(30),4,15,17,20,22,25,27-nonaen-6-yl]phenyl]-2-methyl-propanoic Acid]
DSLS 3D (100 μM ΔT) (NBD1): C (a value greater than 10 °C and less than or equal to 25 °C is marked “C”)

From patent US12649750B2, “Macrocyclic compounds, compositions, and methods of using thereof” (Sionna Therapeutics Inc., priority 2022, dated 2026)
